Experimental data taken from paper PMC4950071, “Reaction of pyranose dehydrogenase from Agaricus meleagris with its carbohydrate substrates” (The Febs Journal, 2015).

Columns and labels:
Test in all cases: steady-state kinetics, ferrocenium reduction
Format in all cases: biochemical
[1] = target: T1, AmPDH (pyranose dehydrogenase from Agaricus meleagris; A. meleagris PDH1) (Macropsalliota meleagris, UniProt Q3L245, H581A); details: apparent; electron acceptor; 500 mM glucose fixed, 100 mM borate pH 8.5, 30 °C; read-out: Fc^+ / K M
T1 construct: C-terminal His6 tag; covalent FAD
Source text: (§1) steady-state kinetics, ferrocenium reduction on AmPDH (pyranose dehydrogenase from Agaricus meleagris; A. meleagris PDH1)

[2] = target: T2, AmPDH (pyranose dehydrogenase from Agaricus meleagris; A. meleagris PDH1) (Macropsalliota meleagris, UniProt Q3L245, H128A); details: apparent; electron acceptor; 50 mM glucose fixed, 100 mM borate pH 8.5, 30 °C; non-covalently bound FAD; read-out: Fc^+ / K M
T2 construct: C-terminal His6 tag; covalent FAD
Source text: as §1

[3] = target: T3, AmPDH (pyranose dehydrogenase from Agaricus meleagris; A. meleagris PDH1) (Macropsalliota meleagris, UniProt Q3L245); details: apparent; electron acceptor; 25 mM glucose fixed, 100 mM borate pH 8.5, 30 °C; read-out: Fc^+ / K M
T3 construct: C-terminal His6 tag; covalent FAD
Source text: as §1

T2 sequence (Q3L245 26-602 H128A): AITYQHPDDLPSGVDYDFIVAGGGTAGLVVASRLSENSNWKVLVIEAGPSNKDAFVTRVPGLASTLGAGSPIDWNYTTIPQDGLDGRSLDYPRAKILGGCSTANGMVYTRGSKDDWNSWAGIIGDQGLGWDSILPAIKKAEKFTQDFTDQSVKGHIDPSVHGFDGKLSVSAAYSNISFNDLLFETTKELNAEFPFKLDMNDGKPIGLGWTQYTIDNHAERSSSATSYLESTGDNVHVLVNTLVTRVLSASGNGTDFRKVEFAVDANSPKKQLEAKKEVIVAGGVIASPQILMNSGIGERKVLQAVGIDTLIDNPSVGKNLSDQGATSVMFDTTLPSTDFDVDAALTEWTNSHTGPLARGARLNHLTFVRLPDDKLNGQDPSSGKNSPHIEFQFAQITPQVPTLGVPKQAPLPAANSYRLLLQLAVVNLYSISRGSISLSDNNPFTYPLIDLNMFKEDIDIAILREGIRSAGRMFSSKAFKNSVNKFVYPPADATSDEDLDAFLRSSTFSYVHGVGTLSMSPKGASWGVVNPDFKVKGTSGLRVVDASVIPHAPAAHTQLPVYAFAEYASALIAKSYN
T3 sequence (Q3L245 26-602): as the sequence (Q3L245 26-602 H128A) above, with A103H counted along it
T1 sequence (Q3L245 26-602 H581A): as the sequence (Q3L245 26-602 H128A) above, with A103H, H556A counted along it

C1=CCC=C1.C1=CCC=C1.[Fe+3] [Fc^+, ferrocenium ion]
Km [1]: 170 ± 10 µM
Km [2]: 160 ± 10 µM
Km [3]: 170 ± 20 µM
